US10485235B2, “Aryloxypyrimidinyl ethers as herbicides” (FMC Corporation, priority 2015, dated 2019)

Assays:
Type in all cases: in vivo
[1] = test system: sedge, umbrella (small-flower umbrella sedge, Cyperus difformis); assay: Test B flooded paddy test, umbrella sedge; conditions: 250 g ai/ha, Flood; visual rating after 13 to 15 days; scale 0 to 100, 0 is no effect, 100 is complete control
Procedure, shortened: (§1)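 Visual ratings, 0 = no effect to 100 = complete control, versus controls after 13 to 15 days in greenhouse. Test compounds were added to paddy water kept 3 cm over the soil surface, on plants at 2-leaf stage.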

[2] = test system: ducksalad (Heteranthera limosa); assay: Test B flooded paddy test, ducksalad; conditions: 250 g ai/ha, Flood; visual rating after 13 to 15 days; scale 0 to 100, 0 is no effect, 100 is complete control
Procedure, shortened: as §1

[3] = test system: barnyardgrass (Echinochloa crus-galli); assay: Test A preemergence, barnyardgrass; conditions: Preemergence, 0 to 100 scale (0 no effect, 100 complete control)
Procedure, shortened: (§2)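 Pre- and postemergence greenhouse screen in loam–sand soil. Test chemicals were delivered in a non-phytotoxic solvent with surfactant, preemergence as a directed spray onto seeded soil and postemergence onto 2–10 cm seedlings. Injury was judged by eye after ~10 days on a 0–100 scale.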

[4] = test system: pigweed (Amaranthus retroflexus); assay: Test A postemergence, pigweed; conditions: postemergence, 0 to 100 scale, 0 is no effect, 100 is complete control, approximately 10 days
Procedure, shortened: as §2

[5] = test system: foxtail, giant (giant foxtail, Setaria faberii); assay: Test A preemergence, giant foxtail; conditions: Preemergence, 0 to 100 scale (0 no effect, 100 complete control)
Procedure, shortened: as §2

kochia (Kochia scoparia) [6] = assay: Test A preemergence, kochia; conditions: Preemergence, 0 to 100 scale (0 no effect, 100 complete control)
Procedure, shortened: as §2

[7] = test system: ryegrass, Italian (Italian ryegrass, Lolium multiflorum); assay: Test A preemergence, Italian ryegrass; conditions: Preemergence, 0 to 100 scale (0 no effect, 100 complete control)
Procedure, shortened: as §2

rice (Oryza sativa) = assay: Test B flooded paddy test, rice; conditions: 250 g ai/ha, Flood; visual rating after 13 to 15 days; scale 0 to 100, 0 is no effect, 100 is complete control
Procedure, shortened: as §1

[8] = test system: foxtail, giant (giant foxtail, Setaria faberii); assay: Test A postemergence, giant foxtail; conditions: postemergence, 0 to 100 scale, 0 is no effect, 100 is complete control, approximately 10 days
Procedure, shortened: as §2

[9] = test system: wheat (Triticum aestivum); assay: Test A postemergence, wheat; conditions: postemergence, 0 to 100 scale, 0 is no effect, 100 is complete control, approximately 10 days
Procedure, shortened: as §2

corn (Zea mays) = assay: Test A postemergence, corn; conditions: postemergence, 0 to 100 scale, 0 is no effect, 100 is complete control, approximately 10 days
Procedure, shortened: as §2

[10] = test system: barnyardgrass (Echinochloa crus-galli); assay: Test A postemergence, barnyardgrass; conditions: postemergence, 0 to 100 scale, 0 is no effect, 100 is complete control, approximately 10 days
Procedure, shortened: as §2

[11] = test system: ragweed (common ragweed, Ambrosia elatior); assay: Test A postemergence, ragweed; conditions: postemergence, 0 to 100 scale, 0 is no effect, 100 is complete control, approximately 10 days
Procedure, shortened: as §2

[12] = test system: galium (catchweed bedstraw, Galium aparine); assay: Test A postemergence, galium; conditions: postemergence, 0 to 100 scale, 0 is no effect, 100 is complete control, approximately 10 days
Procedure, shortened: as §2

[13] = test system: pigweed (Amaranthus retroflexus); assay: Test A preemergence, pigweed; conditions: Preemergence, 0 to 100 scale (0 no effect, 100 complete control)
Procedure, shortened: as §2

[14] = test system: ragweed (common ragweed, Ambrosia elatior); assay: Test A preemergence, ragweed; conditions: Preemergence, 0 to 100 scale (0 no effect, 100 complete control)
Procedure, shortened: as §2

[15] = test system: blackgrass (Alopecurus myosuroides); assay: Test A postemergence, blackgrass; conditions: postemergence, 0 to 100 scale, 0 is no effect, 100 is complete control, approximately 10 days
Procedure, shortened: as §2

[16] = test system: ryegrass, Italian (Italian ryegrass, Lolium multiflorum); assay: Test A postemergence, Italian ryegrass; conditions: postemergence, 0 to 100 scale, 0 is no effect, 100 is complete control, approximately 10 days
Procedure, shortened: as §2

[17] = test system: barnyardgrass (Echinochloa crus-galli); assay: Test B flooded paddy test, barnyardgrass; conditions: 250 g ai/ha, Flood; visual rating after 13 to 15 days; scale 0 to 100, 0 is no effect, 100 is complete control
Procedure, shortened: as §1

kochia (Kochia scoparia) [18] = assay: Test A postemergence, kochia; conditions: postemergence, 0 to 100 scale, 0 is no effect, 100 is complete control, approximately 10 days
Procedure, shortened: as §2

SMILES	Plant response rating, Sedge, Umbrella [1]	Plant response rating, Ducksalad [2]	Plant response rating, Barnyardgrass ([3]; 31 g ai/ha)	Plant response rating, Barnyardgrass ([3]; 125 g ai/ha)	Plant response rating, Pigweed ([4]; 31 g ai/ha)	Plant response rating, Pigweed ([4]; 125 g ai/ha)	Plant response rating, Foxtail, Giant ([5]; 31 g ai/ha)	Plant response rating, Foxtail, Giant ([5]; 125 g ai/ha)	Plant response rating, Kochia (kochia (Kochia scoparia) [6]; 31 g ai/ha)	Plant response rating, Kochia (kochia (Kochia scoparia) [6]; 125 g ai/ha)	Plant response rating, Ryegrass, Italian ([7]; 31 g ai/ha)	Plant response rating, Ryegrass, Italian ([7]; 125 g ai/ha)	Plant response rating, Rice (rice (Oryza sativa))	Plant response rating, Foxtail, Giant ([8]; 31 g ai/ha)	Plant response rating, Foxtail, Giant ([8]; 125 g ai/ha)	Plant response rating, Wheat ([9]; 31 g ai/ha)	Plant response rating, Wheat ([9]; 125 g ai/ha)	Plant response rating, Corn (corn (Zea mays); 31 g ai/ha)	Plant response rating, Corn (corn (Zea mays); 125 g ai/ha)	Plant response rating, Barnyardgrass ([10]; 31 g ai/ha)	other results
Cl/C=C/COc1c(Cl)cccc1Oc1ncc(Cl)cn1 [Compound 48]	70	70	10	60	50	80	30	80	0	80	0	10	20	20	60	0	10	10	20	10	Plant response rating, Barnyardgrass ([10]; 125 g ai/ha): 50; Plant response rating, Ragweed ([11]; 31 g ai/ha): 0; Plant response rating, Ragweed ([11]; 125 g ai/ha): 10; Plant response rating, Galium ([12]; 31 g ai/ha): 10; Plant response rating, Galium ([12]; 125 g ai/ha): 30; Plant response rating, Pigweed ([13]; 31 g ai/ha): 0; Plant response rating, Pigweed ([13]; 125 g ai/ha): 60; Plant response rating, Ragweed ([14]; 31 g ai/ha): 0; Plant response rating, Ragweed ([14]; 125 g ai/ha): 0; Plant response rating, Blackgrass ([15]; 31 g ai/ha): 0; Plant response rating, Blackgrass ([15]; 125 g ai/ha): 10; Plant response rating, Ryegrass, Italian ([16]; 31 g ai/ha): 0; Plant response rating, Ryegrass, Italian ([16]; 125 g ai/ha): 0; Plant response rating, Barnyardgrass [17]: 20; Plant response rating, Kochia (kochia (Kochia scoparia) [18]; 31 g ai/ha): 60; Plant response rating, Kochia (kochia (Kochia scoparia) [18]; 125 g ai/ha): 100
FC(F)(F)C(F)(F)CCCOc1c(Br)cccc1Oc1ncc(Cl)cn1 [Compound 49]	0	0	0	10	10	60	0	40	0	0	0	0	0	0	10	0	0	10	10	0	Plant response rating, Barnyardgrass ([10]; 125 g ai/ha): 0; Plant response rating, Ragweed ([11]; 31 g ai/ha): 10; Plant response rating, Ragweed ([11]; 125 g ai/ha): 20; Plant response rating, Galium ([12]; 31 g ai/ha): 10; Plant response rating, Galium ([12]; 125 g ai/ha): 30; Plant response rating, Pigweed ([13]; 31 g ai/ha): 0; Plant response rating, Pigweed ([13]; 125 g ai/ha): 0; Plant response rating, Ragweed ([14]; 31 g ai/ha): 0; Plant response rating, Ragweed ([14]; 125 g ai/ha): 0; Plant response rating, Blackgrass ([15]; 31 g ai/ha): 0; Plant response rating, Blackgrass ([15]; 125 g ai/ha): 0; Plant response rating, Ryegrass, Italian ([16]; 31 g ai/ha): 0; Plant response rating, Ryegrass, Italian ([16]; 125 g ai/ha): 20; Plant response rating, Barnyardgrass [17]: 0; Plant response rating, Kochia (kochia (Kochia scoparia) [18]; 31 g ai/ha): 0; Plant response rating, Kochia (kochia (Kochia scoparia) [18]; 125 g ai/ha): 30
CCCOc1c(C#N)cccc1Oc1ncc(Cl)cn1 [Compound 50]	60	50	10	20	20	70	10	90	20	100	0	0	0	0	20	0	0	10	10	0	Plant response rating, Barnyardgrass ([10]; 125 g ai/ha): 20; Plant response rating, Ragweed ([11]; 31 g ai/ha): 10; Plant response rating, Ragweed ([11]; 125 g ai/ha): 10; Plant response rating, Galium ([12]; 31 g ai/ha): 10; Plant response rating, Galium ([12]; 125 g ai/ha): 40; Plant response rating, Pigweed ([13]; 31 g ai/ha): 20; Plant response rating, Pigweed ([13]; 125 g ai/ha): 100; Plant response rating, Ragweed ([14]; 31 g ai/ha): 0; Plant response rating, Ragweed ([14]; 125 g ai/ha): 0; Plant response rating, Blackgrass ([15]; 31 g ai/ha): 0; Plant response rating, Blackgrass ([15]; 125 g ai/ha): 10; Plant response rating, Ryegrass, Italian ([16]; 31 g ai/ha): 0; Plant response rating, Ryegrass, Italian ([16]; 125 g ai/ha): 0; Plant response rating, Barnyardgrass [17]: 30; Plant response rating, Kochia (kochia (Kochia scoparia) [18]; 31 g ai/ha): 20; Plant response rating, Kochia (kochia (Kochia scoparia) [18]; 125 g ai/ha): 80
CCCCCOc1c(C#N)cccc1Oc1ncc(Cl)cn1 [Compound 51]	95	80	10	40	10	40	40	100	0	40	0	0	0	10	40	0	0	10	20	10	Plant response rating, Barnyardgrass ([10]; 125 g ai/ha): 30; Plant response rating, Ragweed ([11]; 31 g ai/ha): 0; Plant response rating, Ragweed ([11]; 125 g ai/ha): 10; Plant response rating, Galium ([12]; 31 g ai/ha): 40; Plant response rating, Galium ([12]; 125 g ai/ha): 70; Plant response rating, Pigweed ([13]; 31 g ai/ha): 10; Plant response rating, Pigweed ([13]; 125 g ai/ha): 50; Plant response rating, Ragweed ([14]; 31 g ai/ha): 0; Plant response rating, Ragweed ([14]; 125 g ai/ha): 0; Plant response rating, Blackgrass ([15]; 31 g ai/ha): 0; Plant response rating, Blackgrass ([15]; 125 g ai/ha): 20; Plant response rating, Ryegrass, Italian ([16]; 31 g ai/ha): 0; Plant response rating, Ryegrass, Italian ([16]; 125 g ai/ha): 10; Plant response rating, Barnyardgrass [17]: 0; Plant response rating, Kochia (kochia (Kochia scoparia) [18]; 31 g ai/ha): 40; Plant response rating, Kochia (kochia (Kochia scoparia) [18]; 125 g ai/ha): 70
